Data: patent US8975259B2, “Compositions and methods for inhibiting G protein signaling” (University of Rochester, priority 2007, dated 2015)

Tests used:
[1] = system: NADPH oxidase activity in fMLP-challenged HL60 cells; assay: fMLP-dependent superoxide production (NBT) in differentiated HL60 cells; assay type: cell-based, human; conditions: 10 μM compounds or 100 nM wortmannin, 250 nM fMLP; result in words
Description: (§1) Differentiated HL60 cells stably expressing GFP-PH-Akt were challenged with 250 nM fMLP in the presence and absence of 10 μM concentrations of the indicated compounds. Translocation of GFP-PH-Akt to the plasma membrane was evaluated by Western blot. Quantification shown below. ***, P<0.001 analysis of variance (ANOVA) is statistically different from control (PBS+vehicle). […] Differentiated HL60 cells were challenged with 1 μM fMLP in the presence and absence of 10 μM concentrations of the indicated compounds. Rac1 activation was assessed by Western blots of affinity-precipitated GTP-Rac1 from HL60 cell lysates. Western blot shown is representative of three independent experiments and quantitation contains data pooled from three independent experiments±S.E.M. *P<0.05 ANOVA is statistically different from control (DMSO only). n=3. […] Differentiated HL60 cells were challenged with 250 nM fMLP or 250 nM PMA in the presence and absence of 10 μM compounds or 100 nM Wortmannin (Wtmn). NADPH oxidase activity was determined after reaction with NBT by absorbance at 540 nm. Data shown is contains data pooled from three independent experiments (each in duplicate)±S.E.M. *, P<0.05 ANOVA is statistically different from control (DMSO only).
The nitro blue tetrazolium (NBT) method was used to assess the effects of Gβγ inhibitors on NADPH oxidase activity. HL60 cells (differentiated for 4 days) were washed with and resuspended in HBSS containing calcium and magnesium (Cellgro; Mediatech, Herndon Va.) to a final concentration of 2×10^6 cells/ml. Cells (1×10^6/reaction) were pretreated with 10 μMGβγ inhibitor compound (in DMSO) or 100 nM wortmannin (Sigma Aldrich) for 10 min at 37° C. before the addition of NBT (25 μl of 10 mg/ml in methanol) and then incubated or an additional 5 min at 37° C. All treatments contained the same final concentration of DMSO. […] Cell pellets were then resuspended in 200 μl of DMSO, transferred to a 96-well plate, and absorbance was measured at 540 nm. […]

[2] = system: primary human neutrophils; assay: fMLP-induced chemotaxis of primary human neutrophils (Boyden chamber); assay type: cell-based; conditions: 250 nM fMLP; for effect on fMLP-induced chemotaxis: 10 μM compound or 1 μM wortmannin, result in words
Description: Differentiated HL60 cells (200 k) were pretreated with 10 μM concentrations of the indicated compound, challenged with 250 nM fMLP, and assayed for chemotaxis in a Boyden chamber for 1 h at 37° C. […] Chemotaxis was quantified as above by subtracting out background cells (0-10 cells) in the absence of chemoattractant to obtain total transmigrated cells (−100 cells GM-CSF+vehicle) and represented as the percentage of GM-CSF-treated control cells. No statistically significant difference from control was seen by ANOVA. […] Primary human neutrophils were isolated from whole blood to ≧80% purity. Neutrophils (2×10^5) were pretreated with gallein (10 μM), M119 (10 μM), M119B (10 μM), or wortmannin (wtmn.) (1 μM) and then challenged with 250 nM fMLP or 10 nM IL-8 to evaluate chemotaxis in a Boyden chamber for 1 h at 37° C. […] NS, not statistically different from control. […] Primary human neutrophils were isolated and treated (250 nM fMLP±gallein) as described above. Chemotaxis was quantified as above by subtracting out background cells to obtain total transmigrated cells and represented as the percentage of fMLP-treated control cells. Data shown are pooled from two independent experiments, each in duplicate, ±S.E.M.
Chemotaxis was assayed using a Boyden chamber (Neuro Probe, Gaithersburg, Md.) using 3-μm polyvinylpyrrolidone-free polycarbonate filters (Neuro Probe). HL60 cells (differentiated for 4 days) were washed with and resuspended in HBSS containing 1% bovine serum albumin to a final concentration of 1×10^6 cells/ml. Primary human neutrophils were washed and resuspended in NaCl buffer (140 mM NaCl, 4 mM KCl, 10 mM D-glucose, 10 mM HEPES, pH 7.4, 1 mM MgCl2, and 1 mM CaCl2) to a final concentration of 1×10^6 cells/mi. Chemoattractant [1 μM granulocyte-macrophage-colony stimulating factor (GM-CSF), 10 nM IL-8, or 250 nM fMLP; Sigma Aldrich] was added to the bottom chamber in HBSS containing 1% bovine serum albumin. Cell suspensions (0.2×10^6 cells/well) were added to the top wells of the Boyden chamber and allowed to migrate for 1 h at 37° C. When applicable, cell suspensions were preincubated for […] with small-molecule inhibitors (in DMSO) at the indicated concentrations, and the bottom chamber was adjusted to the same concentration of small molecule. All treatments contained the same final concentration of DMSO. […] Chemotactic HL60 cells were scored by counting three microscope fields and subtracting the number of cells from fMLP wells as background. […] For all the small molecules, effects of the compounds on chemokinesis was analyzed by measuring chemotaxis in the presence of 250 nM fMLP in both the upper and lower chambers of the Boyden Chamber and measuring changes in transwell migration. […]

[3] = system: Rac1 activation in differentiated HL60 cells; assay: fMLP-induced Rac1 activation in differentiated HL60 cells; assay type: cell-based, human; conditions: 10 μM compound, 1 μM fMLP; result in words
Description: as §1
HL60 cells (differentiated for 4 days) were washed with and resuspended in NaCl buffer to a final concentration of 20×10^6 cells/ml. Cells (10×10^6/reaction) were pretreated with 10 μMGβγ inhibitor (in DMSO) for 10 min before challenge with 1 μM fMLP for 90 s in a 37° C. water bath and then immediately transferred to an ice-water bath. Cells were recovered by centrifugation at 500 g and washed two times with ice-cold Tris-buffered saline, pH 7.4. […] Chemiluminescence was analyzed using a charge-coupled device camera in a UVP Epi-Chem II Darkroom imaging system. Results were expressed as percent fMLP-stimulated GTP Rac1 normalized to total Rac1 with the background subtracted.

IC50 ([2]; Homo sapiens, Neutrophil, read-out: IC50 for block of fMLP-dependent chemotaxis) | SMILES | effect on fMLP-dependent superoxide production [1] | effect on fMLP-induced chemotaxis [2] | effect on fMLP-induced Rac1 activation [3]
~5 µM | O=C(O)c1ccccc1-c1c2ccc(=O)c(O)c-2oc2c(O)c(O)ccc12 (racemic) [Gallein] | significantly inhibited | significantly inhibited | inhibited
– | O=C(O)C1CCCCC1c1c2ccc(=O)c(O)c-2oc2c(O)c(O)ccc12 (stereo not shown) [Compound M119, cyclohexanecarboxylic acid, 2-(4,5,6-trihydroxy-3-oxo-3H-xanthen-9-yl)-(9cl)] | significantly inhibited | significantly inhibited | inhibited
– | O=C(O)C1CCCCC1c1c2ccc(=O)cc-2oc2cc(O)ccc12 (stereo not shown) [Compound M119B] | did not significantly affect | no affect | little effect
